Where two headings read alike, the source gives them in different places.

Assay [1] deals with T1, human D2R/β-arrestin (Homo sapiens (Human), UniProt P14416). Kind of assay: β-arrestin agonist assay (PathHunter). Format: cell-based. The settings on record: CHO-K1 cells expressing human D2R/β-arrestin; agonist mode. The protocol: The detection reagent (9.6 μL, Buffer:Emerald II:Galactor-Star in a 19:5:1 ratio, i.e., 14.06 mL:3.7 mL:0.74 mL=18.5 mL) was then added to the agonist plates.

The target of assay [2] is T1, human D2R/β-arrestin. The settings on record: CHO-K1 cells expressing human D2R/β-arrestin, antagonist mode, quinpirole 130 nM; for IC50: read-out: β-arrestin Antagonist.
Assay [3] has as its target T1, human D2R/β-arrestin. Kind of assay: Gi/cAMP agonist assay (Lance Ultra cAMP, forskolin). Format: cell-based. The settings on record: CHO-K1 cells expressing human D2R/β-arrestin; agonist mode, 2.5 μM forskolin. The protocol: Eu-cAMP tracer solution (10 μl, PerkinElmer, 360 μl of Tracer in 17.64 ml kit buffer) and ULight-anti-cAMP solution (10 μl, 120 μL antibody in 17.88 ml kit buffer) was then added to each well.

Assay [4] deals with D2 receptor (Homo sapiens (Human), UniProt P14416). Kind of assay: D2 radioligand binding assay.
The target of assay [5] is T1, human D2R/β-arrestin. Kind of assay: cell-based. To be noted: cAMP Antagonist.
Assay [6] deals with T1, human D2R/β-arrestin. The settings on record: read-out: cAMP Antagonist; CHO-K1 cells expressing human D2R/β-arrestin; antagonist mode, 2.5 μM forskolin and 2.7 nM quinpirole.
Assay [7] has as its target T1, human D2R/β-arrestin. Kind of assay: cell-based. To be noted: β-arrestin Antagonist.
Setting [8] is: CHO-K1 cells expressing human D2R/β-arrestin, antagonist mode, 2.5 μM forskolin and 2.7 nM quinpirole.
Setting [9] is: CHO-K1 cells expressing human D2R/β-arrestin, antagonist mode, quinpirole 130 nM.

D2 receptor, sequence (P14416 whole entry): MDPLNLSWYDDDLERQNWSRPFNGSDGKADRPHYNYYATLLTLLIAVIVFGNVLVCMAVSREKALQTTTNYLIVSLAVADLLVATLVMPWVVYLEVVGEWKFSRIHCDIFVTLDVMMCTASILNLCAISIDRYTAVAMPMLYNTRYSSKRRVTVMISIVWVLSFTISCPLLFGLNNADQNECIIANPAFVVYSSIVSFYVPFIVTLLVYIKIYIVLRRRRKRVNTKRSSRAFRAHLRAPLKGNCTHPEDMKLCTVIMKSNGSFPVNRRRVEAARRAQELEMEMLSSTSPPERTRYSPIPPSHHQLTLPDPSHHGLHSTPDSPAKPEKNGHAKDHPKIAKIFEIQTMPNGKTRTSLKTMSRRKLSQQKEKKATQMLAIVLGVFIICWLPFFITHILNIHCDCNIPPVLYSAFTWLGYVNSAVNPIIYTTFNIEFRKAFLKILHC
T1 sequence (P14416 whole entry): as above

As for `CC1(C(=O)Nc2ccccc2)CCN(CC2COc3ccccc3O2)CC1` (single isomer, unassigned) [Compound 204b, 1-((2,3-dihydrobenzo[b][1,4]dioxin-2-yl)methyl)-4-methyl-N-phenylpiperidine-4-carboxamide], the EC50 in assay [1] was greater than 30 µM; in assay [3] it was less than 0.1 µM. Also, the results for the IC50 in assay [2] and in assay [5] (setting [8]) were 1 to 10 µM and 0.1 to 1 µM, respectively. In addition, the Ki in assay [4] was 0.1 to 1 µM.

Turning to `CC1(Oc2ccc(Cl)cc2)CCN(CCOc2ccc3ncsc3c2)C1` (stereo not drawn) [Compound 18b], the EC50 in assay [1] is greater than 30 µM; in assay [3] it was 0.1 to 1 µM. Further, the results for the IC50 in assay [2] and in assay [6] were 1 to 10 µM and greater than 30 µM, respectively. The compound also had a Ki in assay [4] of 1 to 10 µM.

With `CC1(C(=O)N2CCCC2)CCN(C[C@H]2COc3ccccc3O2)CC1` [Compound 206, (S)-(1-((2,3-dihydrobenzo[b][1,4]dioxin-2-yl)methyl)-4-methylpiperidin-4-yl)(pyrrolidin-1-yl)methanone], the EC50 in assay [1] and in assay [3] was less than 0.1 µM in each case. Moreover, the IC50 is less than 0.1 µM in assay [7] (setting [9]) and greater than 30 µM in assay [5] (setting [8]). This compound also registered an inhibition constant Ki in assay [4] of 0.1 to 1 µM.

`CC(=O)NC1(C)CCN(C[C@H]2COc3ccccc3O2)CC1` [Compound 208, (S)—N-(1-((2,3-dihydrobenzo[b][1,4]dioxin-2-yl)methyl)-4-methylpiperidin-4-yl)acetamide]: the results for the EC50 in assay [1] and in assay [3] were 0.1 to 1 µM and less than 0.1 µM, respectively. For the same compound, the IC50 in assay [7] (setting [9]) was less than 0.1 µM; in assay [5] (setting [8]), greater than 30 µM. The same compound displayed an inhibition constant Ki in assay [4] of 0.1 to 1 µM.

Consider `CC1(NC(=O)C2CC2)CCN(C[C@H]2COc3ccccc3O2)CC1` [Compound 209, (S)—N-(1-((2,3-dihydrobenzo[b][1,4]dioxin-2-yl)methyl)-4-methylpiperidin-4-yl)cyclopropanecarboxamide], for which the EC50 was greater than 30 µM in assay [1] and less than 0.1 µM in assay [3]. Moreover, the IC50 in assay [7] (setting [9]) is less than 0.1 µM; in assay [5] (setting [8]), greater than 30 µM. Besides, in assay [4], the Ki is 0.1 to 1 µM.

As to `CC(=O)NC1(C)CCN(C[C@H]2COc3ccc(F)cc3O2)CC1` [Compound 210, (S)—N-(1-((7-fluoro-2,3-dihydrobenzo[b][1,4]dioxin-2-yl)methyl)-4-methylpiperidin-4-yl)acetamide], the EC50 in assay [1] was 0.1 to 1 µM; in assay [3], less than 0.1 µM. The IC50 is 0.1 to 1 µM in assay [7] (setting [9]) and greater than 30 µM in assay [5] (setting [8]). This compound displayed a Ki in assay [4] of 0.1 to 1 µM.

`CC(=O)NC1(C)CCN(C[C@H]2COc3ccc(Br)cc3O2)CC1` [Compound 211, (S)—N-(1-((7-bromo-2,3-dihydrobenzo[b][1,4]dioxin-2-yl)methyl)-4-methylpiperidin-4-yl)acetamide]: the EC50 in assay [1] and in assay [3] was greater than 30 µM in each case. The IC50 in assay [7] (setting [9]) and in assay [5] (setting [8]) was less than 0.1 µM each time. In assay [4], the Ki is less than 0.1 µM.

On to `CC1(Oc2ccc(C(F)(F)F)cc2)CCN(CCOc2ccccc2)C1` (stereo not drawn) [Example 54, 3-methyl-1-(2-phenoxyethyl)-3-(4-(trifluoromethyl)phenoxy)pyrrolidine], for which the figures for the EC50 in assay [1] and in assay [3] were greater than 30 µM and 0.1 to 1 µM, respectively. The values for the IC50 in assay [7] (setting [9]) and in assay [5] (setting [8]) were 1 to 10 µM and 10 to 30 µM, respectively. The compound further returned a Ki in assay [4] of 1 to 10 µM.

With `CC1(Oc2cccc(C(F)(F)F)c2)CCN(CCOc2ccccc2)C1` (stereo not drawn) [Example 55, 3-methyl-1-(2-phenoxyethyl)-3-(3-(trifluoromethyl)phenoxy)pyrrolidine], the EC50 is greater than 30 µM in assay [1] and less than 0.1 µM in assay [3]. In addition, the IC50 in assay [7] (setting [9]) was 1 to 10 µM; in assay [5] (setting [8]), greater than 30 µM. Moreover, the Ki in assay [4] lay within 1 to 10 µM.

With `CC1(Oc2ccncc2)CCN(CCOc2ccccc2)C1` (stereo not drawn) [Example 59, 4-((3-methyl-1-(2-phenoxyethyl)pyrrolidin-3-yl)oxy)pyridine], the EC50 was 10 to 30 µM in assay [1] and less than 0.1 µM in assay [3]. The IC50 in assay [7] (setting [9]) and in assay [5] (setting [8]) was greater than 30 µM in each case. The same compound had a Ki in assay [4] of 1 to 10 µM.

Take `CC1(Oc2ccncc2)CCN(CCOc2ccccc2)C1` (stereo not drawn) [Example 59b]: the concentration for a half-maximal effect (EC50) in assay [1] is 1 to 10 µM; in assay [3], less than 0.1 µM. Moreover, the IC50 in assay [2] and in assay [6] was greater than 30 µM in each case. The compound further yielded a Ki in assay [4] of 10 to 30 µM.

Regarding `CC1(Oc2ccccc2)CCN(CCOc2ccc(C(F)(F)F)cc2)CC1` [Example 68], the values for the EC50 in assay [1] and in assay [3] were greater than 30 µM and less than 0.1 µM, respectively. Moreover, the IC50 in assay [7] (setting [9]) and in assay [5] (setting [8]) was greater than 30 µM throughout. In assay [4], this compound came in with a Ki of 0.1 to 1 µM.

Take `CC1(Oc2ccccc2)CC2CCC(C1)N2CCOc1ccccc1C(F)(F)F` (stereo not drawn) [Example 78, 3-Methyl-3-phenoxy-8-(2-(2-(trifluoromethyl)phenoxy)ethyl)-8-azabicyclo[3.2.1]octane]: the EC50 in assay [1] is greater than 30 µM; in assay [3] it was 10 to 30 µM. Further, the IC50 in assay [7] lay within 0.1 to 1 µM; in assay [5], 1 to 10 µM. The Ki in assay [4] fell in the range of 0.1 to 1 µM.

In the case of `CC1(Oc2ccc(Cl)cc2)CCN(CCOc2ccccc2F)CC1` [Example 86, 4-(4-chlorophenoxy)-1-(2-(2-fluorophenoxy)ethyl)-4-methylpiperidine], the EC50 in assay [1] and in assay [3] was less than 0.1 µM each time. The IC50 in assay [7] (setting [9]) and in assay [5] (setting [8]) was greater than 30 µM throughout. For the same compound, the inhibition constant Ki in assay [4] was less than 0.1 µM.

For `CC1(Oc2ccccc2)CCN(CCOc2ccccc2C(F)(F)F)CC1` [Example 91, 4-methyl-4-phenoxy-1-(2-(2-(trifluoromethyl)phenoxy)ethyl)piperidine], the concentration giving a half-maximal response (EC50) is greater than 30 µM in assay [1] and less than 0.1 µM in assay [3]. In addition, the values for the IC50 in assay [7] (setting [9]) and in assay [5] (setting [8]) were less than 0.1 µM and greater than 30 µM, respectively. This compound yielded a Ki in assay [4] of 0.1 to 1 µM.

With `CC1(Oc2ccc(Cl)cc2)CCCN(CCOc2ccccc2)C1` (stereo not drawn) [Example 96, 3-(4-chlorophenoxy)-3-methyl-1-(2-phenoxyethyl)piperidine], the EC50 in assay [1] and in assay [3] was greater than 30 µM each time. Moreover, the IC50 in assay [7] (setting [9]) is 0.1 to 1 µM; in assay [5] (setting [8]) it was less than 0.1 µM. The same compound displayed an inhibitory constant (Ki) in assay [4] of 0.1 to 1 µM.

As to `CC1(Oc2ccc(Cl)cc2)CCCN(CCOc2ccccc2F)C1` (stereo not drawn) [Example 98a], the EC50 in assay [1] and in assay [3] was greater than 30 µM in each case. For the same compound, the IC50 in assay [2] and in assay [6] was less than 0.1 µM throughout. Moreover, in assay [4], the Ki was less than 0.1 µM.

For the compound `CC1(Oc2ccc(Cl)cc2)CCCN(CCOc2ccc3scnc3c2)C1` (stereo not drawn) [Example 99, 5-(2-(3-(4-chlorophenoxy)-3-methylpiperidin-1-yl)ethoxy)benzo[d]thiazole], the EC50 in assay [1] and in assay [3] was greater than 30 µM throughout. The results for the IC50 in assay [7] (setting [9]) and in assay [5] (setting [8]) were 0.1 to 1 µM and less than 0.1 µM, respectively. Besides, the Ki in assay [4] lay in the range of 0.1 to 1 µM.

Regarding `FC(F)(F)c1ccccc1OCCN1CCC2(CC1)CC2c1ccccc1` (stereo not drawn) [Example 102a], the EC50 in assay [1] was greater than 30 µM; in assay [3], less than 0.1 µM. The IC50 is 0.1 to 1 µM in assay [2] and greater than 30 µM in assay [6]. For the same compound, in assay [4], the Ki is 0.1 to 1 µM.

As for `CC1(C(=O)c2ccccc2)CCN(CCOc2ccccc2C(F)(F)F)CC1` [Example 106, (4-Methyl-1-(2-(2-(trifluoromethyl)phenoxy)ethyl)piperidin-4-yl) (phenyl)methanone], the EC50 in assay [1] and in assay [3] was greater than 30 µM in each case. The values for the IC50 in assay [7] (setting [9]) and in assay [5] (setting [8]) were 0.1 to 1 µM and less than 0.1 µM, respectively. The same compound returned a Ki in assay [4] of less than 0.1 µM.

As to `CC1(Oc2ccccc2)CCN(CCOc2ccccc2OC(F)(F)F)CC1` [Example 110, 4-methyl-4-phenoxy-1-(2-(2-(trifluoromethoxy)phenoxy)ethyl) piperidine], the figures for the EC50 in assay [1] and in assay [3] were greater than 30 µM and less than 0.1 µM, respectively. Moreover, the IC50 is 0.1 to 1 µM in assay [7] (setting [9]) and greater than 30 µM in assay [5] (setting [8]). Further, the Ki in assay [4] was less than 0.1 µM.

In the case of `CN(c1ccccc1)C1(C)CCN(CCOc2ccccc2C(F)(F)F)CC1` [Example 112], the EC50 in assay [1] is greater than 30 µM; in assay [3], 0.1 to 1 µM. Besides, the IC50 was 0.1 to 1 µM in assay [7] and greater than 30 µM in assay [5]. The compound further came in with a Ki in assay [4] of 0.1 to 1 µM.

As to `O=C1CCc2ccc(OCCCCN3CCCN(c4cccc(Cl)c4Cl)CC3)nc2N1` [UNC9975, reference compound], the “β-arrestin Antagonist” value in assay [2] is on record as “B or A”. In assay [3], the “cAMP Agonist” value is on record as “B or A”.

Regarding `Clc1cccc(C2CCN(CCCOc3ccc4scnc4c3)CC2)c1Cl` [UNC9994, reference compound], the “β-arrestin Agonist” value in assay [1] is recorded as “B or C”. For the same compound, in assay [2], the “β-arrestin Antagonist” value was “B or C”.

The EC50 is the concentration that produces a half-maximal response. The term Ki denotes the dissociation constant of the complex between target and ligand, obtained from inhibition or displacement. Read a high Ki as a looser hold on the target.

The values above are taken from patent US11498896B2 (The Broad Institute, Inc., priority 2014, dated 2022).
